# Columns and labels:
# [1] = system: Oxa-29 class D beta-lactamase; experiment: BLAC2 method, nitrocefin (CPR) rate with Oxa-29; type: biochemical
# Procedure: (§1) The dilution buffer for the enzymes, CPR, standards and samples was 50 mM PBS buffer, pH 7.0.
# (§2) The stock solution of CPR was 200 μM. Standards solution of ampicillin and cefuroxime were prepared at 100, 75, 50, 30, 15, 5, 1 and 0 mg/L.
# In the method 2 (BLAC2), 99 μl of sample, 99 μl of CPR and 22 μl of enzyme Oxa-29 were mixed. The reaction kinetics was determined by measuring the absorbance at 482 nm as a function of time. Enzyme activity v0 max was adjusted at +/−0.2 ΔAbs482/min.
# [2] = target: P99 class C beta-lactamase (Enterobacter cloacae, UniProt P05364); experiment: BLAC1 method, nitrocefin (CPR) rate with P99 (Example 7); type: biochemical
# Chain of P99 class C beta-lactamase (P05364 21-381): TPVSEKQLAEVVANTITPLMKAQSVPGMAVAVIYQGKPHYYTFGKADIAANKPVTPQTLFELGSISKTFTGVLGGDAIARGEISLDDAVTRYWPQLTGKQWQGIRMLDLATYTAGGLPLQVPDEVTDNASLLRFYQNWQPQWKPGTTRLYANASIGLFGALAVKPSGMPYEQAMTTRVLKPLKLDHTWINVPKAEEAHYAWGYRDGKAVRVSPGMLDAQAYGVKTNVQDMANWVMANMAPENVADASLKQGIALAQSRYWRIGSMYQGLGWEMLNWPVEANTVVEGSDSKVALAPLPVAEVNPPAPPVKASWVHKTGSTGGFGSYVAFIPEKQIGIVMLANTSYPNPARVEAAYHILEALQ
# Procedure: as §1, §2
# In the method 1 (BLAC1), 10 μl of 50-fold diluted sample, 100 μl of CPR and 100 μl of enzyme P99 were mixed. The reaction kinetics was determined by measuring the absorbance at 482 nm as a function of time. Enzyme activity v0 max was adjusted at +/−0.33 ΔAbs482/min.
# P99A266C [3] = target: T1, P99A266C (Enterobacter cloacae, UniProt P05364, A266C); experiment: Reaction of immobilized enzyme on ATR element with chromogenic substrate CENTA; type: biochemical, Enterobacter cloacae P99
# T1 construct: made in house; host or cells: E. coli BL21(DE3), pET28 vector
# T1 sequence (P05364 other isoform, or with tags, fused parts or gaps A266C): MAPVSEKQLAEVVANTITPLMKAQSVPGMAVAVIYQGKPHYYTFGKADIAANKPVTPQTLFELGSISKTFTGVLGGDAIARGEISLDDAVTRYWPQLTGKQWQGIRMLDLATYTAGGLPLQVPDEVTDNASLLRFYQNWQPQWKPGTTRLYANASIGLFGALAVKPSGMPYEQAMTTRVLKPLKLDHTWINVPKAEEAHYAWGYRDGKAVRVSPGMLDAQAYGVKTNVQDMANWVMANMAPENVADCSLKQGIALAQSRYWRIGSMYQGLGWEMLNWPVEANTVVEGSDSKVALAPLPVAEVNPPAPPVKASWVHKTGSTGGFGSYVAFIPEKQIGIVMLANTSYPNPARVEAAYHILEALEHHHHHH
# Procedure: On the N-maleimide functionalized ATR element, the class C beta-lactamase P99A266C prepared as in example 2 was bound.
# P99A266C binding onto the functionalized crystal was obtained by depositing 10 μL of a solution (phosphate buffer 50 mM, pH 7) of P99A266C enzyme (30 μg/ml) during 1 h, then rinsing with buffer during 15 min at a rate of 35 μL/min.
# The immobilized enzyme was able to react rapidly with its chromogenic substrate CENTA: this was controlled by the appearance of the […] coloration.
# P99A266C [4] = target: T1, P99A266C; experiment: FTIR-ATR biosensor binding; set-up: species or system Enterobacter cloacae P99; conditions: 50-100 μg/mL, 10-20 min, 35 μl/min
# Procedure: A solution of the beta-lactam antibiotic cefuroxim; obtained from Sigma-Aldrich in milliQ water at a concentration of 50-100 μg/mL was passed over the biosensor constructed in Example 3. The solution was passed over the crystal during 10-20 min at a rate of 35 μl/min.
# FTIR-ATR spectra were recorded and cefuroxim binding was monitored by following the appearance of its characteristic signal. By subtracting the spectrum of the P99A266C, the spectrum of the acyl-enzyme complex appeared clearly. The intensity of the peak at 1730 cm^−1 allowed the quantitative measurement of cefuroxim binding. […] The structure of the acyl-enzyme complex is represented below.
# [5] = target: class C beta-lactamase of Enterobacter cloacae P99 (Enterobacter cloacae, UniProt P05364); conditions: cited from earlier work
# Chain of class C beta-lactamase of Enterobacter cloacae P99 (P05364 21-381): as the sequence (P05364 21-381) above
# [6] = system: class C beta-lactamase of Enterobacter cloacae 908R; conditions: cited from earlier work
# [7] = target: class C beta-lactamase of Citrobacter freundii (Citrobacter freundii, UniProt P05193); conditions: cited from earlier work
# Chain of class C beta-lactamase of Citrobacter freundii (P05193 21-381): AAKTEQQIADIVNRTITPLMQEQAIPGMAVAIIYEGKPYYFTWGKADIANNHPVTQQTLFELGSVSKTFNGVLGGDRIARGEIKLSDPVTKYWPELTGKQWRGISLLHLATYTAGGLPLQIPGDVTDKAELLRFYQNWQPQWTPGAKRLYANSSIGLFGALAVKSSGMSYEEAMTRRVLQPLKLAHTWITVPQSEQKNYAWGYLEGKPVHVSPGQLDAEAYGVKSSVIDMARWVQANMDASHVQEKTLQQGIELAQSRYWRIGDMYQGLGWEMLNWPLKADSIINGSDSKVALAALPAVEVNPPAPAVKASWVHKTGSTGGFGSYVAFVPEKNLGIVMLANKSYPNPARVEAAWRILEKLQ
# [8] = target: class C beta-lactamase of Escherichia coli K12 (Escherichia coli, UniProt P00811); conditions: cited from earlier work
# Chain of class C beta-lactamase of Escherichia coli K12 (P00811 20-377): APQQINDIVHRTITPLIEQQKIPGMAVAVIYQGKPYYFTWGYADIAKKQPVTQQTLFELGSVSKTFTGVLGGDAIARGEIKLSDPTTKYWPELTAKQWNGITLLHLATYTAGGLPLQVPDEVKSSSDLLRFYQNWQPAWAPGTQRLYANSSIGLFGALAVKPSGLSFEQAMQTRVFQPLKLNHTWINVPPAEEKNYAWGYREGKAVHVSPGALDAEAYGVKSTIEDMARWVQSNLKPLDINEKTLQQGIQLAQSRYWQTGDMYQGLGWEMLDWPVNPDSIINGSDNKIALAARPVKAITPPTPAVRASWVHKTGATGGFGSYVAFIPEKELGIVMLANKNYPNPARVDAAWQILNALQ
# [9] = target: class C beta-lactamase of Serratia marcescens (Serratia marcescens, UniProt P18539); conditions: Serratia marcescens, cited from earlier work
# Chain of class C beta-lactamase of Serratia marcescens (P18539 22-376): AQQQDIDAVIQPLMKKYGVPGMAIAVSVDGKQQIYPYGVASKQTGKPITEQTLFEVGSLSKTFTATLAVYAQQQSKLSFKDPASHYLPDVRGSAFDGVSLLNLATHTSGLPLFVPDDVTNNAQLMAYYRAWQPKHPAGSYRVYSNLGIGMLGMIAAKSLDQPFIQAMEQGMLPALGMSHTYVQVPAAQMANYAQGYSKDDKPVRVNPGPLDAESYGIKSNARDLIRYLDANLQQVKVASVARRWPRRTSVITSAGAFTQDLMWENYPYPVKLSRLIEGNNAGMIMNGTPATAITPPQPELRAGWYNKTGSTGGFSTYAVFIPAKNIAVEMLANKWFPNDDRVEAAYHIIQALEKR
# [10] = target: class C beta-lactamase of Pseudomonas aeruginosa (Pseudomonas aeruginosa, UniProt P24735); conditions: Pseudomonas aeruginosa, cited from earlier work
# Chain of class C beta-lactamase of Pseudomonas aeruginosa (P24735 27-397): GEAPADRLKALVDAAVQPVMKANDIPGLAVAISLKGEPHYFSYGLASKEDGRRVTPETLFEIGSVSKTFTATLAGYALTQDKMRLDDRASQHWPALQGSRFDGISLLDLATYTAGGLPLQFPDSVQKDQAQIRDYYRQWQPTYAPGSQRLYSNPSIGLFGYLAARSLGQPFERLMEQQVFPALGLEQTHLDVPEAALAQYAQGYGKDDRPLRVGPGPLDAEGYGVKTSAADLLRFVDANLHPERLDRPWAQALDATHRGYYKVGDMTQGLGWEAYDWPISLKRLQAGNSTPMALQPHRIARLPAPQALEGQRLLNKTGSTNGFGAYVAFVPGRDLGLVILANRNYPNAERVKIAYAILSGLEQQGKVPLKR
# P99A266C beta-lactamase = target: T2, P99A266C beta-lactamase (Enterobacter cloacae, UniProt P05364, A266C); experiment: Kinetic assay, reporter substrate competition (colorimetric assay); type: biochemical, Enterobacter cloacae P99
# T2 construct: made in house; host or cells: E. coli BL21(DE3), pET28 vector
# T2 sequence (P05364 other isoform, or with tags, fused parts or gaps A266C): as the sequence (P05364 other isoform, or with tags, fused parts or gaps A266C) above
# Description: (§3) The colorimetric assay used the competition between a reporter substrate and a beta-lactam antibiotic towards the catalytic site of the class C beta-lactamase. In the absence of beta-lactam antibiotic, the class C beta-lactamase P99 hydrolyzed rapidly the reporter substrate and this reaction produced a deep red (nitrocefin) or yellow (CENTA) coloration.
# (§4) In the presence of beta-lactam antibiotic, P99 catalytic activity was less available and thus less able to hydrolyze the reporter substrate. Accordingly, the higher the concentration of beta-lactam antibiotic, the lower the coloration of the medium. In this enzymatic competitive kinetic assay, the UV-Visible absorbance was inversely proportional to the concentration of beta-lactam antibiotic.
# (§5) Report substrate: A stock solution of reporter substrate consisting of 10 mM of CENTA in HEPES (4-(2-hydroxyethyl)-1-piperazineethanesulfonic acid) pH 7.8 (20 mM)/NaCl (200 mM) buffer was diluted 10 times in HEPES pH 7.8 (20 mM)/NaCl (200 mM) buffer.
# (§6) Solution of enzyme: in a spectrophotometer cell, containing HEPES/NaCl buffer (400 μL) and CENTA (100 μL, 100 μM); 20 μL of P99 enzyme solution was added. The concentration of P99 enzyme was variable in function of the preparation and ranged between 0.01 mg/ml to 100 mg/ml. The absorbance variation was measured at 405 nm during 1 min. The enzyme solution used in the experiment was then diluted until the absorbance variation was comprised between 35 and 45 mUAbs/min cm^−1. This diluted solution was further used in this example.
# (§7) 8 standard solutions per antibiotic tested were deposited on a 96-well microplate (40 μL).
# (§8) The absorbance was measured using a microplate reader, with each column being measured separately. The program comprised following the kinetic during 4 min, with 1 measure at 405 nm every 10 seconds (24 measures). In each well and simultaneously, a mixture of 45 μl HEPES/NaCl buffer and 5 μl P99 solution was added. The same mixture was used for the 8 wells of each column, and thus prepared in advance for distribution with a multi-channel pipette. After 1 min incubation at 20° C., the reading was started, and KC Junior™ software (BioTek Instruments, Winooski, Vt.) was used to calculate the slope of each reaction kinetic. The experiments were made in triplicate and reproduced over 5 different days.
# (§9) Kinetic assays with the P99 beta-lactamase and with P99A266C beta-lactamase were performed in order to test and compare the enzyme activities.
# P99 beta-lactamase = P99 beta-lactamase (Enterobacter cloacae, UniProt P05364); experiment: as above; type: biochemical; set-up: made in house; host or cells: E. coli BL21(DE3), pET28-P99
# Chain of P99 beta-lactamase (P05364 22-380, added parts left off): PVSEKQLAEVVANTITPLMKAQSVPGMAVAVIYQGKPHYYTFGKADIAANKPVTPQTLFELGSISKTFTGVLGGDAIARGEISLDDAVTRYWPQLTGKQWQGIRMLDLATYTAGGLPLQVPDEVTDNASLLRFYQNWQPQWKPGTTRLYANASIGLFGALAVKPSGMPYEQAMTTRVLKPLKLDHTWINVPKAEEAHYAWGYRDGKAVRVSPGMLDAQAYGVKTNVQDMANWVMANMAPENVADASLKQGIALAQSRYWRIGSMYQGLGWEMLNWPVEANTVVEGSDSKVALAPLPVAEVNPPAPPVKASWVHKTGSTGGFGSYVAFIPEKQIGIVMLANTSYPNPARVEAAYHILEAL
# Description: as §3, §4, §5, §6, §7, §8, §9
structure (smiles),measurement,setting,value
CO/N=C(\C(=O)N[C@@H]1C(=O)N2C(C(=O)O)=C(COC(N)=O)CS[C@H]12)c1ccco1 [Cefuroxime],rate of Oxa-29 Class D beta-lactamase,"[1]; BLAC2, 1 mg/L",0.2079 ΔAbs482/min
same,"residual rate minus 1, (vomax/v0)−1, Oxa-29","[1]; BLAC2, 1 mg/L",0.072
same,rate of Oxa-29 Class D beta-lactamase,"[1]; BLAC2, 5 mg/L",0.2025 ΔAbs482/min
same,"residual rate minus 1, (vomax/v0)−1, Oxa-29","[1]; BLAC2, 5 mg/L",0.100
same,rate of Oxa-29 Class D beta-lactamase,"[1]; BLAC2, 15 mg/L",0.2011 ΔAbs482/min
same,"residual rate minus 1, (vomax/v0)−1, Oxa-29","[1]; BLAC2, 15 mg/L",0.108
same,rate of Oxa-29 Class D beta-lactamase,"[1]; BLAC2, 30 mg/L",0.1992 ΔAbs482/min
same,"residual rate minus 1, (vomax/v0)−1, Oxa-29","[1]; BLAC2, 30 mg/L",0.118
same,rate of Oxa-29 Class D beta-lactamase,"[1]; BLAC2, 50 mg/L",0.1897 ΔAbs482/min
same,"residual rate minus 1, (vomax/v0)−1, Oxa-29","[1]; BLAC2, 50 mg/L",0.174
same,rate of Oxa-29 Class D beta-lactamase,"[1]; BLAC2, 75 mg/L",0.1796 ΔAbs482/min
same,"residual rate minus 1, (vomax/v0)−1, Oxa-29","[1]; BLAC2, 75 mg/L",0.241
same,rate of Oxa-29 Class D beta-lactamase,"[1]; BLAC2, 100 mg/L",0.1749 ΔAbs482/min
same,"residual rate minus 1, (vomax/v0)−1, Oxa-29","[1]; BLAC2, 100 mg/L",0.274
same,"linear regression coefficient a (Y=aX+b), Oxa-29","[1]; BLAC2, X in mg/L",0.0023
same,"linear regression coefficient b (Y=aX+b), Oxa-29","[1]; BLAC2, X in mg/L",0.0003
same,rate of P99 class C beta-lactamase,"[2]; BLAC1, 1 mg/L",0.3247 ΔAbs482/min
same,"residual rate minus 1, (vomax/v0)−1, P99","[2]; BLAC1, 1 mg/L",0.048
same,rate of P99 class C beta-lactamase,"[2]; BLAC1, 5 mg/L",0.2763 ΔAbs482/min
same,"residual rate minus 1, (vomax/v0)−1, P99","[2]; BLAC1, 5 mg/L",0.232
same,rate of P99 class C beta-lactamase,"[2]; BLAC1, 15 mg/L",0.1938 ΔAbs482/min
same,"residual rate minus 1, (vomax/v0)−1, P99","[2]; BLAC1, 15 mg/L",0.756
same,rate of P99 class C beta-lactamase,"[2]; BLAC1, 30 mg/L",0.1417 ΔAbs482/min
same,"residual rate minus 1, (vomax/v0)−1, P99","[2]; BLAC1, 30 mg/L",1.402
same,rate of P99 class C beta-lactamase,"[2]; BLAC1, 50 mg/L",0.0957 ΔAbs482/min
same,"residual rate minus 1, (vomax/v0)−1, P99","[2]; BLAC1, 50 mg/L",2.556
same,rate of P99 class C beta-lactamase,"[2]; BLAC1, 75 mg/L",0.0736 ΔAbs482/min
same,"residual rate minus 1, (vomax/v0)−1, P99","[2]; BLAC1, 75 mg/L",3.624
same,rate of P99 class C beta-lactamase,"[2]; BLAC1, 100 mg/L",0.0539 ΔAbs482/min
same,"residual rate minus 1, (vomax/v0)−1, P99","[2]; BLAC1, 100 mg/L",5.314
same,"linear regression coefficient a (Y=aX+b), P99","[2]; BLAC1, X in mg/L",0.0518
same,"linear regression coefficient b (Y=aX+b), P99","[2]; BLAC1, X in mg/L",0.0013
same,reaction of immobilized enzyme with chromogenic substrate when antibiotic fixed,P99A266C [3],did not occur
same,binding to P99A266C biosensor (FTIR-ATR),P99A266C [4],fixed to P99A266C (acyl-enzyme complex)
same,kcat,[5],0.05 s⁻¹
same,Km,[5]; read-out: Km,0.016 µM
same,kcat,[6],0.05 s⁻¹
same,kcat,[7],0.04 s⁻¹
same,Km,[7]; read-out: Km,0.02 µM
same,kcat,[8],0.15 s⁻¹
same,Km,[8]; read-out: Km,0.15 µM
same,kcat,[9],0.8 s⁻¹
same,Km,[9]; read-out: Km,0.6 µM
same,kcat,[10],0.05 s⁻¹
same,Km,[10]; read-out: Km,0.02 µM
CCN1CCN(C(=O)N[C@@H](C(=O)N[C@@H]2C(=O)N3[C@@H]2SC(C)(C)[C@@H]3C(=O)O)c2ccccc2)C(=O)C1=O [Piperacillin],Diff. (%) P99 vs P99A266C,P99A266C beta-lactamase; antibiotic 5 ug/ml,16%
same,P99A266C rate,P99A266C beta-lactamase; antibiotic 5 ug/ml,8.3 mUAbs/min
same,Diff. (%) P99 vs P99A266C,P99A266C beta-lactamase; antibiotic 10 ug/ml,4%
same,P99A266C rate,P99A266C beta-lactamase; antibiotic 10 ug/ml,6.1 mUAbs/min
same,Diff. (%) P99 vs P99A266C,P99A266C beta-lactamase; antibiotic 20 ug/ml,6%
same,P99A266C rate,P99A266C beta-lactamase; antibiotic 20 ug/ml,3.8 mUAbs/min
same,Diff. (%) P99 vs P99A266C,P99A266C beta-lactamase; antibiotic 40 ug/ml,−4%
same,P99A266C rate,P99A266C beta-lactamase; antibiotic 40 ug/ml,2.5 mUAbs/min
same,P99 rate,P99 beta-lactamase; antibiotic 5 ug/ml,9.7 mUAbs/min
same,P99 rate,P99 beta-lactamase; antibiotic 10 ug/ml,6.4 mUAbs/min
same,P99 rate,P99 beta-lactamase; antibiotic 20 ug/ml,4.0 mUAbs/min
same,P99 rate,P99 beta-lactamase; antibiotic 40 ug/ml,2.4 mUAbs/min

# From US9689021B2, “Method for measuring beta-lactam antibiotics” (priority 2011, dated 2017)
